Read-outs that look alike come from different tables or passages of the source.

One assay concerns ED cells. As to the kind of experiment: ATL cell proliferation assay (WST-8), ED cells. To be noted: read-out: IC50 (inhibition of cell proliferation), ED. The class given is cell-based, human. How it is done: (§1) ED cells were kindly provided by Dr. M. Maeda (Kyoto University, Kyoto, Japan) and Su9T01 cells were kindly provided by Dr. N. Arima (Kagoshima University, Kagoshima, Japan). The test compounds were dissolved in dimethyl sulfoxide and subjected to assay screening. The method of ATL assay is described in a previous report. IC50 calculation was some curve fitted onto the determined proliferation inhibition points.
For orientation: Tetrazolium dyes change colour on reduction, which living cells bring about.

Another assay concerns Su9T01 cells. As to the kind of experiment: ATL cell proliferation assay (WST-8), Su9T01 cells. The class given is cell-based, human. The settings on record: read-out: IC50 (inhibition of cell proliferation), Su9T01. The method, then: as §1
Assay [1] concerns phytohemagglutinin-activated human peripheral blood mononuclear cells (PBMC). As to the kind of experiment: cells. The settings on record: read-out: IC50 (inhibition of PBMC proliferation). How it is done:
as §1

For a further assay, the system named is HL-60 cells. Set-up: method as in PMID 22654956, PMID 18959405. The settings on record: human acute myelogenous leukemia cells; cited from earlier work.
The mark [2] stands for this setting: Homo sapiens, ED cells, 72 h incubation in RPMI-1640, WST-8 assay.
Where [3] appears, read: Homo sapiens, Su9T01 cells, 72 h incubation in RPMI-1640, WST-8 assay.
Where [4] appears, read: ED cells, 72 h incubation in RPMI-1640, WST-8 assay.
Where [5] appears, read: Su9T01 cells, 72 h incubation in RPMI-1640, WST-8 assay.

Regarding `CCCCCCCC/C=C/CCCCCCCC(=O)O` [elaidic acid], the IC50 in the assay on ED cells (Homo sapiens, 72 h) was greater than 500 µM; in the assay on Su9T01 cells (Homo sapiens, 72 h), greater than 500 µM.
In the case of `CCCCC/C=C\C/C=C\CCCCCCCC(=O)O` [linoleic acid], the results for the IC50 in the assay with ED cells (setting [2]) and with Su9T01 cells (setting [3]) were 101 µM and 180 µM, respectively.
Consider `CCCCCCCCCCCCCCCCCC(=O)O` [stearic acid, Stearic acid], for which the IC50 in the assay on Su9T01 cells (setting [3]) is greater than 500 µM.
Turning to `CCCC/C=C/C=C/C=C\CCCCCCCC(=O)O` [α-ESA, α-Eleostearic acid], the IC50 was 8.9 µM in the assay with ED cells (Homo sapiens, 72 h); 29.3 µM in the assay with Su9T01 cells (Homo sapiens, 72 h); 31 µM in assay [1]. The “Anti-leukemic potential in HL-60 cells” value in the assay with HL-60 cells is “anti-leukemic potential”.
`CC/C=C\C/C=C\C/C=C\CCCCCCCC(=O)O` [α-linolenic acid]: the IC50 stood at 130 µM with ED cells (setting [4]) and 167 µM with Su9T01 cells (setting [5]).
Turning to `CCCCC/C=C\C/C=C\C/C=C\CCCCC(=O)O` [γ-linolenic acid, γ-Linolenic acid], the IC50 with ED cells (setting [2]) was found to be 61.3 µM; in the assay on Su9T01 cells (setting [3]) it was 174 µM.
For the compound Epigallocatechin-3-gallate [EGCG], the IC50 in the assay on ED cells (setting [4]) was 153 µM; in the assay on Su9T01 cells (setting [5]), 166 µM.

The record behind these values is publication PMC4844309, “Identification of a Bioactive Compound against Adult T-cell Leukaemia from Bitter Gourd Seeds” (Plants, 2013).
